From patent US20250034173A1, “PYRIDO[4,3-D]PYRIMIDINE COMPOUNDS” (PFIZER INC., priority 2023, published 2025)

What was measured:
[1] = system: H358 (non-small cell lung cancer cell line); experiment: KRAS Cell Titer Glo (CTG) cell proliferation assay, H358; assay type: cell-based; conditions: Homo sapiens, NCI-H358, 168 h; H358 cells, 7-day CTG, geomean IC50
From the text: (§1) The CellTiter-Glo® (CTG) Luminescent Cell Viability Assay is a homogeneous method of determining the number of viable cells in culture based on quantitation of the ATP present, an indicator of metabolically active cells. The CTG is designed for use with multi-well formats, making it ideal for automated high-throughput screening (HTS), cell proliferation and cytotoxicity assays. The homogeneous assay procedure involves adding the single reagent (CellTiter-Glo® Reagent) directly to cells cultured in serum-supplemented medium. Cell washing, removal of medium and multiple pipetting steps are not required. The system detects as few as 15 cells per well in a 384-well format in 10 minutes after adding reagent and mixing.
(§2) Cells are grown in humidified 5% CO2 incubator at 37° C. using the culture conditions outlined below. All cell culture media reagents were purchased from Gibco. Cell lines purchased from ATCC: H358 (non-small cell lung cancer cell line), SW620 (colorectal cancer cell line), PANC08.13 (RPM11640+10% FBS+10 units/mL Insulin, pancreatic cancer cell line). Test and control compounds are dispensed as nanoliter drops according to desired final concentrations in 0.1% DMSO using Echo Acoustic Dispenser onto 384 assay plates (Corning, Cat #3764) prior to cell seeding. Cells were seeded in 40 μL volume per well at the following cell densities (cells per well): H358 (300), SW620 (750), PANC 08.13 (600). Cells are incubated in the presence of compound for 7-days. Viability is determined on Day 7 using CellTiter-Glo® (CTG) Luminescent Cell Viability Assay (Promega). CTG is added to a […] per well and incubated at room temperature for 15 minutes before luminescence is captured using an EnVision Reader with LUM384 US protocol. Data is analyzed using Activity Base to determine compound response and will be represented either as a percent effect (PCTEFF) or percent control (PCTOCTL) as described: Zero percent effect control (ZPE) (Negative control)—100% DMSO. Hundred percent effect (HPE) (Positive control)—1 uM Trametinib (GSK1120212, MEK inhibitor) (4 nl of 10 mM and 36 nl of DMSO per well). The following equations/nomenclature are used (% Effect; PCTEFF) and (% of Control; PCTOCTL): PCTEFF: 100*(Raw_Data_Value−HPE/ZPE−HPE), PCTOCTL: 100*Raw_Data_Value/User_Defined_Array), where the User_Defined_Array is either summarized HPE or ZPE.
(§3) Cells with “nd” indicate compound not tested in that particular assay at time of writing. It is to be understood that the geomean IC50 data may change slightly over time with increasing repeat data (ie: increasing n #).

[2] = biological target: KRAS G12D (Homo sapiens (Human), UniProt P01116, G12D); experiment: SPR binding affinity and kinetics, GTPγS-loaded KRAS G12D; conditions: GTPγS loaded protein, geomean
From the text: (§4) No additional regeneration was used.
(§5) Compound dissociation was monitored for at least 3600 seconds. […] No additional regeneration was used.
(§6) The adequateness of the fit was judged by c2 values and the randomness of residue distribution.

[3] = biological target: KRAS G12C (Homo sapiens (Human), UniProt P01116, G12C); experiment: SPR binding affinity and kinetics, GTPγS-loaded KRAS G12C; conditions: GTPγS loaded protein, geomean
From the text: as §4, §5, §6

[4] = biological target: KRAS Wild Type (Homo sapiens (Human), UniProt P01116); experiment: SPR binding affinity and kinetics, GTPγS-loaded KRAS Wild Type; conditions: GTPγS loaded protein, geomean
From the text: as §4, §5, §6

[5] = system: PANC08.13 (pancreatic cancer cell line); experiment: KRAS Cell Titer Glo (CTG) cell proliferation assay, PANC08.13; assay type: cell-based; conditions: Homo sapiens, PANC-08-13, 168 h; PANC08.13 cells, 7-day CTG, geomean IC50
From the text: as §1, §2, §3

[6] = system: SW620 (colorectal cancer cell line); experiment: KRAS Cell Titer Glo (CTG) cell proliferation assay, SW620; assay type: cell-based; conditions: Homo sapiens, SW-620, 168 h; SW620 cells, 7-day CTG, geomean IC50
From the text: as §1, §2, §3

[7] = biological target: KRAS G12V (Homo sapiens (Human), UniProt P01116, G12V); experiment: SPR binding affinity and kinetics, GTPγS-loaded KRAS G12V; conditions: GTPγS loaded protein, geomean
From the text: as §4, §5, §6

Chain of KRAS G12D (P01116 other isoform, or with tags, fused parts or gaps G12D): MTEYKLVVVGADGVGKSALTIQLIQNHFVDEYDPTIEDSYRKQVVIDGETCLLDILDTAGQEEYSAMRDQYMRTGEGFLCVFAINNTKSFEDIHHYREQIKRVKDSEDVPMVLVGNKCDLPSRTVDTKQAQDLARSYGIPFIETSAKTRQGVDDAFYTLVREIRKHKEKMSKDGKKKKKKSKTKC
Chain of KRAS Wild Type (P01116 other isoform, or with tags, fused parts or gaps): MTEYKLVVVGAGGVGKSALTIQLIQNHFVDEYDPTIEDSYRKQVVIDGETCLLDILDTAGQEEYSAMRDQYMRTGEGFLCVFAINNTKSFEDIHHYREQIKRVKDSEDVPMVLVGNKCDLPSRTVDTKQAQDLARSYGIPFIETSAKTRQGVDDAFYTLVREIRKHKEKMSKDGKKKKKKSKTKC
Chain of KRAS G12V (P01116 other isoform, or with tags, fused parts or gaps G12V): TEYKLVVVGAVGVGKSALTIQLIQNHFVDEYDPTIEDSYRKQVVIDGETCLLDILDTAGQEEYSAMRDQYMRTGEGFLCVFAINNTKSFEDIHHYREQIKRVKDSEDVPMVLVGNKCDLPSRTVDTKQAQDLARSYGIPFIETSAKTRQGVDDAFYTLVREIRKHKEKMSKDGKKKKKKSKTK
Chain of KRAS G12C (P01116 other isoform, or with tags, fused parts or gaps G12C): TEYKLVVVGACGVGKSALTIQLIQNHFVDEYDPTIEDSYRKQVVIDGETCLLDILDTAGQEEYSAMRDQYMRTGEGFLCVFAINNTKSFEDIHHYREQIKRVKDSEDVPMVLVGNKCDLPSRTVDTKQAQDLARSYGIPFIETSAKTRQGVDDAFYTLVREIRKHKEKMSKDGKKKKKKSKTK

Q: `C=C1CN2CC[C@@H](O)[C@@]2(COc2nc3c4c(nc(-c5c(C6CC6)c(Cl)cc6[nH]ncc56)c(F)c4n2)OC[C@@H]2COCCCN32)C1` (relative stereo) [Example 45, (1R,7aS*)-7a-({[(8aS)-5-(6-chloro-5-cyclopropyl-1H-indazol-4-yl)-4-fluoro-8a,9,12,13-tetrahydro-8H,11H-7,10-dioxa-1,3,6,13a-tetraazanaphtho[1,8-ab]heptalen-2-yl]oxy}methyl)-6-methylidenehexahydro-1H-pyrrolizin-1-ol] was tested. Which IC50 [1] did it give?
A: The IC50 was 19 nM.

Q: And the Kd [2]?
A: The Kd was 1 nM.

Q: What about the Kd [3] of the same compound?
A: Its Kd is 3 nM.

Q: And the Kd [4]?
A: The Kd was 3 nM.

Q: What about the IC50 [5] of the same compound?
A: Its IC50 is 20 nM.

Q: What about the IC50 [6] of the same compound?
A: The IC50 was 32 nM.

Q: What about the Kd [7] of the same compound?
A: The Kd was 2 nM.

Q: Which results are given for `COC/C=C1/CN2CCC[C@@]2(COc2nc3c4c(nc(-c5c(C6CC6)c(Cl)cc6[nH]ncc56)c(F)c4n2)OC[C@@H]2COCCCN32)C1` (relative stereo) [Example 48, (8aS)-5-(6-chloro-5-cyclopropyl-1H-indazol-4-yl)-4-fluoro-2-{[(2E,7aS*)-2-(2-methoxyethylidene)tetrahydro-1H-pyrrolizin-7a(5H)-yl]methoxy}-8a,9,12,13-tetrahydro-8H,11H-7,10-dioxa-1,3,6,13a-tetraazanaphtho[1,8-ab]heptalene]?
A: Kd [2]: 35 nM; Kd [3]: 72 nM; Kd [4]: 65 nM; Kd [7]: 41 nM

Q: Which results are given for `COC/C=C1/CN2CCC[C@@]2(COc2nc3c4c(nc(-c5c(C6CC6)c(Cl)cc6[nH]ncc56)c(F)c4n2)OC[C@@H]2COCCCN32)C1` (relative stereo) [Example 49, (8aS)-5-(6-chloro-5-cyclopropyl-1H-indazol-4-yl)-4-fluoro-2-{[(2E,7aR*)-2-(2-methoxyethylidene)tetrahydro-1H-pyrrolizin-7a(5H)-yl]methoxy}-8a,9,12,13-tetrahydro-8H,11H-7,10-dioxa-1,3,6,13a-tetraazanaphtho[1,8-ab]heptalene]?
A: Kd [2]: 41 nM; Kd [3]: 73 nM; Kd [4]: 63 nM; Kd [7]: 58 nM

Q: With `COC/C=C1\CN2CCC[C@@]2(COc2nc3c4c(nc(-c5c6c(cc7[nH]ncc57)CCC[C@H]6OC)c(F)c4n2)OC[C@@H]2COCCCN32)C1` (relative stereo) [Example 59, (8aS)-4-fluoro-2-{[(2Z,7aS)-2-(2-methoxyethylidenetetrahydro-1H-pyrrolizin-7a(5H)-yl]methoxy}-5-[(5R*)-5-methoxy-5,6,7,8-tetrahydro-1H-benzo[f]indazol-4-yl]-8a,9,12,13-tetrahydro-8H,11H-7,10-dioxa-1,3,6,13a-tetraazanaphtho[1,8-ab]heptalene] as the compound, how does the Kd [2] read?
A: Its Kd is greater than 1000 nM.

Q: And the Kd [3]?
A: Its Kd is greater than 1000 nM.

Q: What about the Kd [4] of the same compound?
A: The Kd was greater than 1000 nM.

Q: What about the Kd [7] of the same compound?
A: The Kd was greater than 1000 nM.

Q: What does the source list for `C=C1CN2CCC[C@@]2(COc2nc3c4c(nc(-c5c([C@@H]6C[C@@H]6C)c(Cl)cc6[nH]ncc56)c(F)c4n2)OC[C@@H]2COCCCN32)C1` (single isomer, unassigned) [Example 30, (8aS)-5-{6-chloro-5-[(1R*,2S*)-2-methylcyclopropyl]-1H-indazol-4-yl}-4-fluoro-2-{[(7aS)-2-methylidenetetrahydro-1H-pyrrolizin-7a(5H)-yl]methoxy}-8a,9,12,13-tetrahydro-8H,11H-7,10-dioxa-1,3,6,13a-tetraazanaphtho[1,8-ab]heptalene]?
A: IC50 [1]: 51 nM; Kd [2]: 2 nM; Kd [3]: 3 nM; Kd [4]: 4 nM; IC50 [5]: 4 nM; IC50 [6]: 102 nM; Kd [7]: 4 nM

Q: Which results are given for `C=C1CN2CCC[C@@]2(COc2nc3c4c(nc(-c5c([C@H]6C[C@H]6C)c(Cl)cc6[nH]ncc56)c(F)c4n2)OC[C@@H]2COCCCN32)C1` (single isomer, unassigned) [Example 31, (8aS)-5-{6-chloro-5-[(1S*,2R*)-2-methylcyclopropyl]-1H-indazol-4-yl}-4-fluoro-2-{[(7aS)-2-methylidenetetrahydro-1H-pyrrolizin-7a(5H)-yl]methoxy}-8a,9,12,13-tetrahydro-8H,11H-7,10-dioxa-1,3,6,13a-tetraazanaphtho[1,8-ab]heptalene]?
A: IC50 [1]: 54 nM; Kd [2]: 6 nM; Kd [3]: 7 nM; Kd [4]: 10 nM; IC50 [5]: 11 nM; IC50 [6]: 115 nM; Kd [7]: 5 nM

Q: With `C=C1CN2CCC[C@@]2(COc2nc3c4c(nc(-c5c([C@@H]6C[C@H]6C)c(Cl)cc6[nH]ncc56)c(F)c4n2)OC[C@@H]2COCCCN32)C1` (single isomer, unassigned) [Example 51, (8aS)-5-{6-chloro-5-[(1R*,2R*)-2-methylcyclopropyl]-1H-indazol-4-yl}-4-fluoro-2-{[(7aS)-2-methylidenetetrahydro-1H-pyrrolizin-7a(5H)-yl]methoxy}-8a,9,12,13-tetrahydro-8H,11H-7,10-dioxa-1,3,6,13a-tetraazanaphtho[1,8-ab]heptalene] as the compound, how does the IC50 [1] read?
A: Its IC50 is 27 nM.

Q: What about the Kd [2] of the same compound?
A: The Kd was 6 nM.

Q: And the Kd [3]?
A: Its Kd is 8 nM.

Q: What about the Kd [4] of the same compound?
A: Its Kd is 12 nM.

Q: And the IC50 [5]?
A: Its IC50 is 10 nM.

Q: And the IC50 [6]?
A: The IC50 was 40 nM.

Q: And the Kd [7]?
A: The Kd was 7 nM.

Q: For `C=C1CN2CCC[C@@]2(COc2nc3c4c(nc(-c5c6c(cc7[nH]ncc57)CCC[C@H]6OC)c(F)c4n2)OC[C@@H]2COCCCN32)C1` (single isomer, unassigned) [Example 56, (8aS)-4-fluoro-5-[(5R*)-5-methoxy-5,6,7,8-tetrahydro-1H-benzo[f]indazol-4-yl]-2-{[(7aS)-2-methylidenetetrahydro-1H-pyrrolizin-7a(5H)-yl]methoxy}-8a,9,12,13-tetrahydro-8H,11H-7,10-dioxa-1,3,6,13a-tetraazanaphtho[1,8-ab]heptalene], which IC50 [1] is on record?
A: The IC50 was 172 nM.

Q: And the Kd [2]?
A: Its Kd is 34 nM.

Q: What about the Kd [3] of the same compound?
A: The Kd was 10 nM.

Q: What about the Kd [4] of the same compound?
A: The Kd was 23 nM.

Q: And the IC50 [5]?
A: Its IC50 is 135 nM.

Q: What about the IC50 [6] of the same compound?
A: The IC50 was 63 nM.

Q: What about the Kd [7] of the same compound?
A: The Kd was 23 nM.

Q: Which Kd [2] does the source give for `C=C1CN2CCC[C@@]2(COc2nc3c4c(nc(-c5c6c(cc7[nH]ncc57)CCC[C@H]6OC)c(F)c4n2)OC[C@@H]2COCCCN32)C1` (single isomer, unassigned) [Example 57, (8aS)-4-fluoro-5-[(5R*)-5-methoxy-5,6,7,8-tetrahydro-1H-benzo[f]indazol-4-yl]-2-{[(7aS)-2-methylidenetetrahydro-1H-pyrrolizin-7a(5H)-yl]methoxy}-8a,9,12,13-tetrahydro-8H,11H-7,10-dioxa-1,3,6,13a-tetraazanaphtho[1,8-ab]heptalene] here?
A: The Kd was greater than 1000 nM.

Q: What about the Kd [3] of the same compound?
A: Its Kd is greater than 1000 nM.

Q: What about the Kd [4] of the same compound?
A: Its Kd is greater than 1000 nM.

Q: And the Kd [7]?
A: Its Kd is greater than 1000 nM.

Q: How did the IC50 [1] turn out when `C=C1CN2CCC[C@@]2(COc2nc3c4c(nc(-c5c(C)c(Cl)cc6[nH]ncc56)c(F)c4n2)OC[C@@H]2COCCCN32)C1` [Example 7, (8aS)-5-(6-chloro-5-methyl-1H-indazol-4-yl)-4-fluoro-2-{[(7aS)-2-methylidenetetrahydro-1H-pyrrolizin-7a(5H)-yl]methoxy}-8a,9,12,13-tetrahydro-8H,11H-7,10-dioxa-1,3,6,13a-tetraazanaphtho[1,8-ab]heptalene] was run?
A: Its IC50 is 173 nM.

Q: And the Kd [2]?
A: Its Kd is 28 nM.

Q: What about the Kd [3] of the same compound?
A: The Kd was 15 nM.

Q: What about the Kd [4] of the same compound?
A: The Kd was 34 nM.

Q: And the IC50 [5]?
A: Its IC50 is 22 nM.

Q: And the IC50 [6]?
A: Its IC50 is 139 nM.

Q: What about the Kd [7] of the same compound?
A: Its Kd is 24 nM.

Q: How did the IC50 [1] turn out when `C=C1CN2CCC[C@@]2(COc2nc3c4c(nc(-c5c(Cl)c(C)cc6[nH]ncc56)c(F)c4n2)OC[C@@H]2COCCCN32)C1` [Example 8] was run?
A: The IC50 was 263 nM.

Q: And the Kd [2]?
A: Its Kd is 141 nM.

Q: And the Kd [3]?
A: The Kd was 176 nM.

Q: What about the Kd [4] of the same compound?
A: The Kd was 117 nM.

Q: And the IC50 [5]?
A: Its IC50 is 48 nM.

Q: And the IC50 [6]?
A: The IC50 was 294 nM.

Q: And the Kd [7]?
A: Its Kd is 105 nM.
